Measurements as given in patent publication US11820773B2, “Tricyclic compounds” (ALIGOS THERAPEUTICS, INC., priority 2020, dated 2023).

System: HBV
Assay: HBV-DNA antiviral assay using HepG2.117 cells (intracellular HBV DNA by qPCR)
Type: cell-based, genotype D HBV
Conditions: HBV DNA inhibition, 3 days incubation, 2% DMSO
How it was run: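 Endpoints are intracellular HBV DNA by qPCR (interpolated from a gBlock standard curve) and ATP-based viability in duplicate plates. Doxycycline-free HepG2.117 Tet-off cells received compounds (9 concentrations, 4-fold steps, 2% DMSO) for 3 days. Inhibition normalised to DMSO wells; EC50/EC90/CC50 by curve fitting.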

Structure (SMILES)	EC50 [nM]
CNC(=O)c1ccc(-n2c(=O)c3c(n4ncc(Cc5ccccc5)c24)CN(C(=O)c2ccc(Br)c(C(F)(F)F)c2)CC3)cc1 [Compound 4, 4-[5-benzyl-12-[4-bromo-3-(trifluoromethyl)benzoyl]-8-oxo-2,3,7,12-tetrazacyclo[7.4.0.0^2,6]trideca-1(9),3,5-trien-7-yl]-N-methyl-benzamide]	< 50
CNc1onc2cc(-n3c(=O)c4c(n5ncc(Cc6ccccc6)c35)CN(C(=O)c3ccc(Br)c(Cl)c3)CC4)ccc12 [Compound 6, 5-benzyl-12-(4-bromo-3-chloro-benzoyl)-7-[3-(methylamino)-2,1-benzoxazol-6-yl]-2,3,7,12-tetrazatricyclo[7.4.0.0^2,6]trideca-1(9),3,5-trien-8-one]	< 50
Cn1cnnc1-c1ccc(-n2c(=O)c3c(n4ncc(Cc5ccccc5)c24)CN(C(=O)c2ccc(Br)c(Cl)c2)CC3)cc1 [Compound 9, 5-benzyl-12-(4-bromo-3-chloro-benzoyl)-7-[4-(4-methyl-1,2,4-triazol-3-yl)phenyl]-2,3,7,12-tetrazatricyclo[7.4.0.0^2,6]trideca-1(9),3,5-trien-8-one]	< 50
Cn1nnc(-c2ccc(-n3c(=O)c4c(n5ncc(Cc6ccccc6)c35)CN(C(=O)c3ccc(Br)c(Cl)c3)CC4)cc2)n1 [Compound 10, 5-benzyl-12-(4-bromo-3-chloro-benzoyl)-7-[4-(2-methyltetrazol-5-yl)phenyl]-2,3,7,12-tetrazatricyclo[7.4.0.0^2,6]trideca-1(9),3,5-trien-8-one]	< 50
CNC(=O)c1ccc(-n2c(=O)c3c(n4ncc(CC5CCCC5)c24)CN(C(=O)c2ccc(Br)c(Cl)c2)CC3)cc1 [Compound 11, 4-[12-(4-bromo-3-chloro-benzoyl)-5-(cyclopentylmethyl)-8-oxo-2,3,7,12-tetrazatricyclo[7.4.0.0^2,6]trideca-1(9),3,5-trien-7-yl]-N-methyl-benzamide]	< 50

Same assay, conditions: Hepatitis B virus, 72 h, HBV DNA inhibition, 3 days incubation, 2% DMSO

Structure (SMILES)	EC50 [nM]
CC(C)Cc1cnn2c3c(c(=O)n(-c4ccc5c(c4)nnn5CCO)c12)C[C@@H](C)N(C(=O)c1ccc(Br)c(C(F)(F)F)c1)C3 (stereo in doubt) [Compound 108a, rac-(11R)-12-[4-bromo-3-(trifluoromethyl)benzoyl]-7-[1-(2-hydroxyethyl)benzotriazol-5-yl]-5-isobutyl-11-methyl-2,3,7,12-tetrazatricyclo[7.4.0.0^2,6]trideca-1(9),3,5-trien-8-one]	< 50
CC(C)Cc1cnn2c3c(c(=O)n(-c4ccc5c(c4)nnn5CCO)c12)C[C@H](C)N(C(=O)c1ccc(Br)c(C(F)(F)F)c1)C3 (stereo in doubt) [Compound 108b, rac-(11S)-12-[4-bromo-3-(trifluoromethyl)benzoyl]-7-[1-(2-hydroxyethyl)benzotriazol-5-yl]-5-isobutyl-11-methyl-2,3,7,12-tetrazatricyclo[7.4.0.0^2,6]trideca-1(9),3,5-trien-8-one]	50 to 500
CNC(=O)c1ccc(-n2c(=O)c3c(n4ncc(Cc5ccccc5)c24)CN(C(=O)c2ccc(Br)c(C(F)(F)F)c2)[C@H](C)C3)nc1 (stereo in doubt) [Compound 109a, N-methyl-6-[rac-(11R)-5-benzyl-12-[4-bromo-3-(trifluoromethyl)benzoyl]-11-methyl-8-oxo-2,3,7,12-tetrazatricyclo[7.4.0.0^2,6]trideca-1(9),3,5-trien-7-yl]pyridine-3-carboxamide]	50 to 500
CNC(=O)c1ccc(-n2c(=O)c3c(n4ncc(Cc5ccccc5)c24)CN(C(=O)c2ccc(Br)c(C(F)(F)F)c2)[C@@H](C)C3)nc1 (stereo in doubt) [Compound 109b, N-methyl-6-[rac-(11S)-5-benzyl-12-[4-bromo-3-(trifluoromethyl)benzoyl]-11-methyl-8-oxo-2,3,7,12-tetrazatricyclo[7.4.0.0^2,6]trideca-1(9),3,5-trien-7-yl]pyridine-3-carboxamide]	< 50
Cc1nnc(-c2ccc(-n3c(=O)c4c(n5ncc(Cc6ccccc6)c35)CN(C(=O)c3ccc(Br)c(Cl)c3)CC4)cc2)[nH]1 [Compound 1, 5-benzyl-12-(4-bromo-3-chloro-benzoyl)-7-[4-(5-methyl-4H-1,2,4-triazol-3-yl)phenyl]-2,3,7,12-tetrazatricyclo[7.4.0.0^2,6]trideca-1(9),3,5-trien-8-one]	< 50
CNC(=O)c1ccc(-n2c(=O)c3c(n4ncc(Cc5ccccc5)c24)CN(C(=O)c2ccc(Br)c(C)c2)CC3)cc1 [Compound 2, 4-[5-benzyl-12-(4-bromo-3-methyl-benzoyl)-8-oxo-2,3,7,12-tetrazatricyclo[7.4.0.0″2,6]trideca-1(9),3,5-trien-7-yl]-N-methyl-benzamide]	< 50
CNC(=O)c1ccc(-n2c(=O)c3c(n4ncc(Cc5ccccc5)c24)CN(C(=O)c2ccc(Br)c(C(F)F)c2)CC3)cc1 [Compound 3, 4-[5-benzyl-12-[4-bromo-3-(difluoromethyl)benzoyl]-8-oxo-2,3,7,12-tetrazatricyclo[7.4.0.0^2,6]trideca-1(9),3,5-trien-7-yl]-N-methyl-benzamide]	< 50
CNc1nsc2cc(-n3c(=O)c4c(n5ncc(Cc6ccccc6)c35)CN(C(=O)c3ccc(Br)c(Cl)c3)CC4)ccc12 [Compound 5, 5-benzyl-12-(4-bromo-3-chloro-benzoyl)-7-[3-(methylamino)-1,2-benzothiazol-6-yl]-2,3,7,12-tetrazatricyclo[7.4.0.0^2,6]trideca-1(9),3,5-trien-8-one]	< 50
Cc1cnn(-c2ccc(-n3c(=O)c4c(n5ncc(Cc6ccccc6)c35)CN(C(=O)c3ccc(Br)c(Cl)c3)CC4)cc2)c1 [Compound 7, 5-benzyl-12-(4-bromo-3-chloro-benzoyl)-7-[4-(4-methylpyrazol-1-yl)phenyl]-2,3,7,12-tetrazatricyclo[7.4.0.0^2,6]trideca-1(9),3,5-trien-8-one]	< 50
Cn1nnnc1-c1ccc(-n2c(=O)c3c(n4ncc(Cc5ccccc5)c24)CN(C(=O)c2ccc(Br)c(Cl)c2)CC3)cc1 [Compound 8, 5-benzyl-12-(4-bromo-3-chloro-benzoyl)-7-[4-(1-methyltetrazol-5-yl)phenyl]-2,3,7,12-tetrazatricyclo[7.4.0.0^2,6]trideca-1(9),3,5-trien-8-one]	< 50
Cc1ccnn1-c1ccc(-n2c(=O)c3c(n4ncc(Cc5ccccc5)c24)CN(C(=O)c2ccc(Br)c(Cl)c2)CC3)cc1 [Compound 12, 5-benzyl-12-(4-bromo-3-chloro-benzoyl)-7-[4-(5-methylpyrazol-1-yl)phenyl]-2,3,7,12-tetrazatricyclo[7.4.0.0^2,6]trideca-1(9),3,5-trien-8-one]	< 50
O=C(c1ccc(Br)c(Cl)c1)N1CCc2c(n3ncc(Cc4ccccc4)c3n(-c3ccc(-n4ccc(C(F)(F)F)n4)cc3)c2=O)C1 [Compound 13, 5-benzyl-12-(4-bromo-3-chloro-benzoyl)-7-[4-[3-(trifluoromethyl)pyrazol-1-yl]phenyl]-2,3,7,12-tetrazatricyclo[7.4.0.0^2,6]trideca-1(9),3,5-trien-8-one]	50 to 500
CNC(=O)c1ccc(-n2c(=O)c3c(n4ncc(CC5CCC5)c24)CN(C(=O)c2ccc(Br)c(Cl)c2)CC3)cc1 [Compound 14, 4-[12-(4-bromo-3-chloro-benzoyl)-5-(cyclobutylmethyl)-8-oxo-2,3,7,12-tetrazatricyclo[7.4.0.0^2,6]trideca-1(9),3,5-trien-7-yl]-N-methyl-benzamide]	< 50
